Results on 31 molecules are retold here after US9790229B2, “Bruton's tyrosine kinase inhibitors” (priority 2009, dated 2017).

By IC50 is commonly meant the midpoint of a concentration-inhibition curve.

A value given as a limit tells only on which side of the number the result lay.

Sequence of BTK (Q06187 whole entry): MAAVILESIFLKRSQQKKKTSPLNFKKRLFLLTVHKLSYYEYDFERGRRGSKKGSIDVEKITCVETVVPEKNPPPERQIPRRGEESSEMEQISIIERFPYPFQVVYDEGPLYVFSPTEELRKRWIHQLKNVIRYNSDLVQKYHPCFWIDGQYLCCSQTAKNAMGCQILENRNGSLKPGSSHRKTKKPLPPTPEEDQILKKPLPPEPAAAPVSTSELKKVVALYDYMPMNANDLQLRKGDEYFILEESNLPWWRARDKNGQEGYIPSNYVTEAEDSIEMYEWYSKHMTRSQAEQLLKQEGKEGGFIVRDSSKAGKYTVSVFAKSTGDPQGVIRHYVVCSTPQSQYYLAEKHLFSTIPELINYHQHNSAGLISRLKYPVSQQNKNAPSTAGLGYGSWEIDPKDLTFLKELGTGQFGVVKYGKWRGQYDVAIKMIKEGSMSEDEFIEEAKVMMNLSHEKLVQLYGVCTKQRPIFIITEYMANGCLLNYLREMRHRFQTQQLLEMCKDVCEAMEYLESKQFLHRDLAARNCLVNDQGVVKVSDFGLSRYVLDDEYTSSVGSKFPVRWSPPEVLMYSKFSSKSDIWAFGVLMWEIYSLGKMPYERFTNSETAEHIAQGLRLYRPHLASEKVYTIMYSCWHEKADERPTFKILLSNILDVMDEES

The first assay concerns the target BTK (Homo sapiens (Human), UniProt Q06187). The assay is described as follows: In vitro BTK kinase assay: BTK-POLYGAT-LS ASSAY.
Details: not given
Consider `CC(C)CN1CCN(c2ncnc3[nH]ccc23)CC1c1cccc(NC(=O)Nc2ccccc2)c1` (stereo not shown) [compound 129, 1-(3-(1-isobutyl-4-(7H-pyrrolo[2,3-d]pyrimidin-4-yl)piperazin-2-yl)phenyl)-3-phenylurea], for which the half-maximal inhibitory concentration (IC50) lay within 1000 to 10000 nM.

Turning to `O=C(Nc1ccccc1)Nc1nc(C2CCCN(c3ncnc4[nH]ccc34)C2)cs1` (stereo not shown) [compound 116, 1-(4-(1-(7H-pyrrolo[2,3-d]pyrimidin-4-yl)piperidin-3-yl)thiazol-2-yl)-3-phenylurea], the IC50 was in the range of 1000 to 10000 nM.

As to `O=C(Nc1cc(C2CCCN(c3ncnc4[nH]ccc34)C2)ccc1OC(F)(F)F)c1ccccc1` (stereo not shown) [Cmpd 85, N-(5-(1-(7H-pyrrolo[2,3-d]pyrimidin-4-yl)piperidin-3-yl)-2-(trifluoromethoxy)phenyl)benzamide], the IC50 was 100 to 999 nM.

`O=C(Nc1cccc(C2CCCN(c3ncnc4[nH]ccc34)C2)c1)Nc1c(Cl)cccc1C(F)(F)F` (stereo not shown) [compound 161] gave an IC50 of 100 to 999 nM.

With `Nc1ncnc(N2CC[C@@H](C(F)(F)F)[C@H](N3CCC[C@H](Nc4cc(Cl)cc(Cl)c4)C3=O)C2)c1F` [compound 336, trans (3S)-1′-(6-Amino-5-fluoropyrimidin-4-yl)-3-(3,5-dichlorophenylamino)-4′-(trifluoromethyl)-1,3′-bipiperidin-2-one], the concentration for half-maximal inhibition (IC50) fell in the range of 1000 to 10000 nM.

On to `O=C(NCc1ccccc1)Nc1cccc(C2CCCN(c3ncnc4[nH]ccc34)C2)c1` (stereo not shown) [compound 219], for which the concentration for half-maximal inhibition (IC50) was 1000 to 10000 nM.

As for `O=C(Nc1ccccc1)Nc1csc(C2CCCN(c3ncnc4[nH]ccc34)C2)n1` (stereo not shown) [compound 106, 1-(2-(1-(7H-pyrrolo[2,3-d]pyrimidin-4-yl)piperidin-3-yl)thiazol-4-yl)-3-phenylurea], the IC50 is 1000 to 10000 nM.

The molecule `O=C(Nc1cccc([C@H]2CN(c3ncnc4[nH]ccc34)CC[C@H]2CO)c1)Nc1ccccc1N1CCCC1` [compound 123, 1-(3-((3S/R)-4-(hydroxymethyl)-1-(7H-pyrrolo[2,3-d]pyrimidin-4-yl)piperidin-3-yl)phenyl)-3-(2-(pyrrolidin-1-yl)phenyl)urea] showed an IC50 of 100 to 999 nM.

`O=C(Nc1ccccc1)N[C@@H]1CCN(C2CCCN(c3ncnc4[nH]ccc34)C2)C1` (stereo partly shown) [compound 220] came in with a half-inhibitory concentration (IC50) of 1000 to 10000 nM.

With `O=C(Nc1cccc(C2CCCN(c3ncnc4[nH]ccc34)C2)c1)Nc1ccccc1F` (stereo not shown) [compound 182], the IC50 was in the range of 1000 to 10000 nM.

Molecule `CN(C)[C@@H]1CCN(c2ccccc2NC(=O)Nc2cccc(C3CCCN(c4ncnc5[nH]ccc45)C3)c2)C1` (stereo partly shown) [compound 210] had a half-maximal inhibitory concentration (IC50) of 1000 to 10000 nM.

`O=C(Nc1cccc(C2CCCN(c3ncnc4[nH]ccc34)C2)c1)Nc1ccccc1N1CCOCC1` (stereo not shown) [compound 165] gave an IC50 of 100 to 999 nM.

Take `O=C(COc1ccccc1)Nc1cccc(C2CCCN(c3ncnc4[nH]ccc34)C2)c1` (stereo not shown) [Cmpd 22, N-(3-(1-(7H-pyrrolo[2,3-d]pyrimidin-4-yl)piperidin-3-yl)phenyl)-2-phenoxyacetamide]: the 50% inhibitory concentration (IC50) was 1000 to 10000 nM.

The assay is the same for the next values; noted with them: read-out: IC50 (10 uM ATP); 10 uM ATP; in vitro Btk kinase assay, Example 41.
Take `Nc1ncnc(N2CC[C@@H](C(F)(F)F)[C@H](N3CCC[C@@H](Nc4cc(Cl)cc(Cl)c4)C3=O)C2)c1F` [compound 335, trans (3R)-1′-(6-Amino-5-fluoropyrimidin-4-yl)-3-(3,5-dichlorophenylamino)-4′-(trifluoromethyl)-1,3′-bipiperidin-2-one]: the half-inhibitory concentration (IC50) is less than 100 nM.

Consider `O=C(Nc1cccc(C2CCCN(c3ncnc4[nH]ccc34)C2)c1)Nc1ccc(F)cc1N1CCCC1` (stereo not shown) [compound 147], for which the half-inhibitory concentration (IC50) was less than 100 nM.

Turning to `O=C(Nc1cccc(C2CCCN(c3ncnc4[nH]ccc34)C2)c1)NC1CCNCC1` (stereo not shown) [compound 243], the half-maximal inhibitory concentration (IC50) is more than 10000 nM.

Consider `CC(C)(C)NC1CCCN([C@@H]2CCCN(c3ncnc(N)c3F)C2)C1=O` (stereo partly drawn) [compound 290, (3′R)-1′-(6-Amino-5-fluoropyrimidin-4-yl)-3-(tert-butylamino)-1,3′-bipiperidin-2-one], for which the IC50 was more than 10000 nM.

`O=C(Nc1cccc(C2CN(c3ncnc4[nH]ccc34)CCN2CCO)c1)Nc1c(F)cccc1N1CCCC1` (stereo not shown) [compound 135, 1-(2-Fluoro-6-(pyrrolidin-1-yl)phenyl)-3-(3-(1-(2-hydroxyethyl)-4-(7H-pyrrolo[2,3-d]pyrimidin-4-yl)piperazin-2-yl)phenyl)urea]: the concentration for half-maximal inhibition (IC50) is less than 100 nM.

`O=c1c(Nc2ccccc2)c(Nc2cccc(C3CCCN(c4ncnc5[nH]ccc45)C3)c2)c1=O` (stereo not shown) [Cmpd 69, 3-(3-(1-(7H-pyrrolo[2,3-d]pyrimidin-4-yl)piperidin-3-yl)phenylamino)-4-(phenylamino)cyclobut-3-ene-1,2-dione]: the concentration for half-maximal inhibition (IC50) was more than 10000 nM.

As to `CC(C)c1ccccc1NC(=O)Nc1cccc(C2CCCN(c3ncnc4[nH]ccc34)C2)c1` (stereo not shown) [compound 151], the IC50 is less than 100 nM.

With `O=C(NCC1CCC(C(F)(F)F)CC1)Nc1cccc(C2CCCN(c3ncnc4[nH]ccc34)C2)c1` (stereo not shown) [compound 257], the IC50 was more than 10000 nM.

Consider `N#Cc1cnc2[nH]ccc2c1N1CCC[C@@H](N2CCCC(Nc3cc(F)cc(Cl)c3)C2=O)C1` (stereo partly drawn) [compound 285, 4-((3′R)-3-(3-Chloro-5-fluorophenylamino)-2-oxo-1,3′-bipiperidin-1′-yl)-1H-pyrrolo[2,3-b]pyridine-5-carbonitrile], for which the half-inhibitory concentration (IC50) is less than 100 nM.

Consider `CC(=O)N1CCC(CNC(=O)Nc2cccc(C3CCCN(c4ncnc5[nH]ccc45)C3)c2)CC1` (stereo not shown) [compound 246], for which the concentration for half-maximal inhibition (IC50) is more than 10000 nM.

Regarding `Nc1ncnc(N2CCC[C@@H](N3CCCC(Nc4cc(Cl)c(F)c(Cl)c4)C3=O)C2)c1F` (stereo partly drawn) [compound 309, (3′R)-1′-(6-Amino-5-fluoropyrimidin-4-yl)-3-(3,5-dichloro-4-fluorophenylamino)-1,3′-bipiperidin-2-one], the concentration for half-maximal inhibition (IC50) was less than 100 nM.

`O=C(Nc1ccc(C2CCCC2)cc1)Nc1cccc(C2CCCN(c3ncnc4[nH]ccc34)C2)c1` (stereo not shown) [compound 255]: the half-maximal inhibitory concentration (IC50) was more than 10000 nM.

On to `Nc1ncnc(N2CCC[C@@H](N3CCCC(Nc4ccccc4S(=O)(=O)c4ccccc4)C3=O)C2)c1F` (stereo in doubt) [compound 319, 1′-(6-Amino-5-fluoropyrimidin-4-yl)-3-(2-(phenylsulfonyl)phenylamino)-1,3′-bipiperidin-2-one], for which the IC50 is less than 100 nM.

As to `Cc1noc(C)c1NC(=O)Nc1cccc(C2CCCN(c3ncnc4[nH]ccc34)C2)c1` (stereo not shown) [compound 254], the half-maximal inhibitory concentration (IC50) was more than 10000 nM.

With `O=C1C(Nc2cc(Cl)cc(Cl)c2)CCCN1[C@H]1CN(c2ncnc3[nH]ccc23)CC[C@@H]1C(F)(F)F` (stereo partly drawn) [compound 339, trans-3-(3,5-Dichlorophenylamino)-1′-(7H-pyrrolo[2,3-d]pyrimidin-4-yl)-4′-(trifluoromethyl)-1,3′-bipiperidin-2-one], the IC50 was less than 100 nM.

Turning to `O=C(Nc1cccc(C2CCCN(c3ncnc4[nH]ccc34)C2)c1)Nc1c(Cl)cccc1N1CCCC1` (stereo not shown) [Cmpd 50, 1-(3-(1-(7H-pyrrolo[2,3-d]pyrimidin-4-yl)piperidin-3-yl)phenyl)-3-(2-chloro-6-(pyrrolidin-1-yl)phenyl)urea], the IC50 is less than 100 nM.

Consider `O=C1[C@H](Nc2cc(Cl)cc(Cl)c2)CCN1[C@H]1CN(c2ncnc3[nH]ccc23)CC[C@@H]1C(F)(F)F` [compound 322], for which the IC50 was less than 100 nM.

Regarding `Nc1ncnc(N2CC[C@H](C(F)(F)F)[C@@H](N3CCCC(Nc4cc(Cl)cc(Cl)c4)C3=O)C2)c1F` (stereo partly drawn) [compound 334, trans 1′-(6-Amino-5-fluoropyrimidin-4-yl)-3-(3,5-dichlorophenylamino)-4′-(trifluoromethyl)-1,3′-bipiperidin-2-one], the 50% inhibitory concentration (IC50) was less than 100 nM.
